# According to PMC7285812 (Drug Design, Development and Therapy, 2020):
# Values joined by “and” are separate entries in the source; they are usually repeats but may differ in a detail not shown here. Equal entries are not always repeated. Structures can show the parent of a compound that is named as a salt.
# Tests used:
# AChE electric eel = AChE electric eel (Electrophorus electricus, UniProt O42275); assay: biochemical; conditions: for inhibition at 15.62 µg/mL / inhibition at 31.25 µg/mL / inhibition at 62.5 µg/mL / inhibition at 125 µg/mL / inhibition at 250 µg/mL / inhibition at 500 µg/mL / inhibition at 1000 µg/mL: read-out: (%) Inhibition AChE
# [1] = biological target: BChE (lyophilized equine serum) (Equus caballus, UniProt P81908); assay: Butyrylcholinesterase inhibition, Ellman's assay; format: biochemical; conditions: for inhibition at 15.62 µg/mL / inhibition at 31.25 µg/mL / inhibition at 62.5 µg/mL / inhibition at 125 µg/mL / inhibition at 250 µg/mL / inhibition at 500 µg/mL / inhibition at 1000 µg/mL: read-out: (%) Inhibition BChE
# [2] = DPPH radicals scavenging assay; conditions: for IC50: read-out: IC50 DPPH free radicals scavenging
# [3] = ABTS free radicals scavenging assay; conditions: for IC50: read-out: IC50 ABTS free radicals scavenging
# [4] = Hydrogen peroxide free radicals scavenging assay; conditions: read-out: IC50 H2O2 free radicals scavenging
# [5] = biological target: α-glucosidase from Saccharomyces cerevisiae (Saccharomyces cerevisiae, UniProt P53341); assay: α-Glucosidase inhibition, chromogenic assay; format: biochemical; conditions: for inhibition at 15.62 µg/mL / inhibition at 31.25 µg/mL / inhibition at 62.5 µg/mL / inhibition at 125 µg/mL / inhibition at 250 µg/mL / inhibition at 500 µg/mL / inhibition at 1000 µg/mL: read-out: (%) Inhibition α-glucosidase
# acetylcholinesterase = acetylcholinesterase (Electrophorus electricus, UniProt O42275); assay: Michaelis–Menten kinetics of acetylcholinesterase inhibition; format: biochemical, electric eel; conditions: Michaelis–Menten / Lineweaver–Burk
# butyrylcholinesterase = butyrylcholinesterase (Equus caballus, UniProt P81908); assay: Michaelis–Menten kinetics of butyrylcholinesterase inhibition; format: biochemical, equine; conditions: Michaelis–Menten / Lineweaver–Burk
# α-glucosidase = α-glucosidase (Saccharomyces cerevisiae, UniProt P53341); assay: Michaelis–Menten kinetics of α-glucosidase inhibition; format: biochemical; conditions: Michaelis–Menten / Lineweaver–Burk
# Sequence of α-glucosidase (P53341 whole entry): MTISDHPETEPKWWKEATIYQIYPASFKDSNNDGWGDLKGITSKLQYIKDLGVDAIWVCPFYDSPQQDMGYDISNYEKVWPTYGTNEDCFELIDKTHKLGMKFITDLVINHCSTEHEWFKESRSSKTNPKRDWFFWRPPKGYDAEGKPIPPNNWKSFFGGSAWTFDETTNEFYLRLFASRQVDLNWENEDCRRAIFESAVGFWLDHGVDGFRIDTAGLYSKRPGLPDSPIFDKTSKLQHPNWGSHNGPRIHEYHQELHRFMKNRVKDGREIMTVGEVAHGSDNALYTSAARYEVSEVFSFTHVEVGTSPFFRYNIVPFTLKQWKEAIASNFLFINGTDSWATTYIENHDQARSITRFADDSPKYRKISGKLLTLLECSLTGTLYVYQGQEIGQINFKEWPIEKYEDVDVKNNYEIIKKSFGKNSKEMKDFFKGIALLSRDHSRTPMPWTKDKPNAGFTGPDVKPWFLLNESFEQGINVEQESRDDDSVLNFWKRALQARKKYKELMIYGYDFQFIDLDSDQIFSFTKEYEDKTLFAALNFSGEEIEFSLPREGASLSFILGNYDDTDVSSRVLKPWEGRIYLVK
# Sequence of butyrylcholinesterase (P81908 whole entry): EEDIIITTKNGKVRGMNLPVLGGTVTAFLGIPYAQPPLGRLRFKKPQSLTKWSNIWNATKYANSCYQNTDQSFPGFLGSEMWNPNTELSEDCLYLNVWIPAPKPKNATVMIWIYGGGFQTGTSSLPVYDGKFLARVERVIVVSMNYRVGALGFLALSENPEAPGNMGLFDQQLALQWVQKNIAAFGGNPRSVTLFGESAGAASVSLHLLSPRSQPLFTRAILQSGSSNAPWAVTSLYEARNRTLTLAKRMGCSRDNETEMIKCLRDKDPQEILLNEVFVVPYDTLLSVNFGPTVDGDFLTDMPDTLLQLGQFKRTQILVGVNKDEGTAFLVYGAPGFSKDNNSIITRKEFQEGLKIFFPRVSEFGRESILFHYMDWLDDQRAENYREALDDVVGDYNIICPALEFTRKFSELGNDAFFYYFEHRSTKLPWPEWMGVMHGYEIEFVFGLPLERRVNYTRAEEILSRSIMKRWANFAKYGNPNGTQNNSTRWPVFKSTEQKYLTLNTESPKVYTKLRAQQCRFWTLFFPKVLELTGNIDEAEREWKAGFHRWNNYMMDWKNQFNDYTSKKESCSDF
# Sequence of BChE (lyophilized equine serum) (P81908 whole entry): as above
# Sequence of AChE electric eel (O42275 24-633): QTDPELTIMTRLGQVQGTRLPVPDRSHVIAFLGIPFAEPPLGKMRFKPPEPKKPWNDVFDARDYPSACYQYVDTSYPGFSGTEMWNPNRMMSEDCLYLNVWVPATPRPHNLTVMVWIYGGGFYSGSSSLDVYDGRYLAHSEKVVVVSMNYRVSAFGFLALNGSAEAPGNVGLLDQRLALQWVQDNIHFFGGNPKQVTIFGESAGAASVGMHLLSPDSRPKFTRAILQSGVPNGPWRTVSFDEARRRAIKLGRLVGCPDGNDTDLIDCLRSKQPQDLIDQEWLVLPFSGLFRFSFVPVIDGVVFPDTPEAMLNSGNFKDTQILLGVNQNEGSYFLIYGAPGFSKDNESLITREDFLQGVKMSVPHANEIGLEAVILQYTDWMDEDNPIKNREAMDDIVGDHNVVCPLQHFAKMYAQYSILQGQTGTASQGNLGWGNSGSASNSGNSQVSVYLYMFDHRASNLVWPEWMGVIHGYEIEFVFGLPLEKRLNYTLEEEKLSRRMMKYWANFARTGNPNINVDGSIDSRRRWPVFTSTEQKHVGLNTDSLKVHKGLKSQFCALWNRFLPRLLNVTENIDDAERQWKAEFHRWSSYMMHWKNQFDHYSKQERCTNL
# Sequence of α-glucosidase from Saccharomyces cerevisiae (P53341 whole entry): as the sequence (P53341 whole entry) above
# Sequence of acetylcholinesterase (O42275 24-633): as the sequence (O42275 24-633) above
smiles,measurement,setting,value
"O=CC1([C@@H]2CC(=O)N(c3ccccc3)C2=O)CCCCC1 [Compound 1, (S)-1-(2,5-dioxo-1-phenylpyrrolidin-3-yl) cyclohexanecarbaldehyde]",IC50,AChE electric eel,343 µM
same,inhibition at 15.62 µg/mL,AChE electric eel,12.8 ± 1.5%
same,inhibition at 31.25 µg/mL,AChE electric eel,23.9 ± 0.88%
same,inhibition at 62.5 µg/mL,AChE electric eel,41.1 ± 0.47%
same,inhibition at 125 µg/mL,AChE electric eel,57.03 ± 0.35%
same,inhibition at 250 µg/mL,AChE electric eel,68.6 ± 1.06%
same,inhibition at 500 µg/mL,AChE electric eel,72.76 ± 0.71%
same,inhibition at 1000 µg/mL,AChE electric eel,78.42 ± 0.43%
same,IC50,[1],277 µM
same,inhibition at 15.62 µg/mL,[1],15.4 ± 0.9%
same,inhibition at 31.25 µg/mL,[1],26.1 ± 1.04%
same,inhibition at 62.5 µg/mL,[1],44.6 ± 0.63%
same,inhibition at 125 µg/mL,[1],59.8 ± 1.21%
same,inhibition at 250 µg/mL,[1],69.7 ± 0.91%
same,inhibition at 500 µg/mL,[1],75.76 ± 0.61%
same,inhibition at 1000 µg/mL,[1],81.49 ± 0.6%
same,(%) Inhibition DPPH,[2]; 15.62 μg/mL,28.23 ± 1.71 %
same,(%) Inhibition DPPH,[2]; 31.25 μg/mL,34.05 ± 1.40 %
same,(%) Inhibition DPPH,[2]; 62.5 μg/mL,44.66 ± 0.88 %
same,(%) Inhibition DPPH,[2]; 125 μg/mL,58.50 ± 1.61 %
same,(%) Inhibition DPPH,[2]; 250 μg/mL,68.40 ± 1.97 %
same,(%) Inhibition DPPH,[2]; 500 μg/mL,72.83 ± 1.89 %
same,(%) Inhibition DPPH,[2]; 1000 μg/mL,79.53 ± 1.92 %
same,IC50,[2],298 µM
same,(%) Inhibition ABTS,[3]; 15.62 μg/mL,16.60±1.63 %
same,(%) Inhibition ABTS,[3]; 31.25 μg/mL,26.87±0.85 %
same,(%) Inhibition ABTS,[3]; 62.5 μg/mL,40.51±0.54 %
same,(%) Inhibition ABTS,[3]; 125 μg/mL,54.49±0.60 %
same,(%) Inhibition ABTS,[3]; 250 μg/mL,61.22±1.28 %
same,(%) Inhibition ABTS,[3]; 500 μg/mL,67.31±0.58 %
same,(%) Inhibition ABTS,[3]; 1000 μg/mL,79.87±1.27 %
same,IC50,[3],333 µM
same,IC50,[4],826 µM
same,IC50,[5],158 µM
same,inhibition at 15.62 µg/mL,[5],28 ± 0.35%
same,inhibition at 31.25 µg/mL,[5],34.4 ± 0.43%
same,inhibition at 62.5 µg/mL,[5],44.9 ± 1.55%
same,inhibition at 125 µg/mL,[5],58.8 ± 0.71%
same,inhibition at 250 µg/mL,[5],68.8 ± 1.24%
same,inhibition at 500 µg/mL,[5],72.9 ± 0.96%
same,inhibition at 1000 µg/mL,[5],79.6 ± 1.12%
same,"Vmax, acetylcholinesterase inhibition",acetylcholinesterase,84.93 µg/min
same,"Vmax, butyrylcholinesterase inhibition",butyrylcholinesterase,1.553 µg/min
same,"Vmax, α-glucosidase",α-glucosidase,2.360 µg/min
"C[C@](C=O)(c1ccccc1)[C@@H]1CC(=O)N(c2ccccc2)C1=O [Compound 2, (R)-2-((S)-2,5-dioxo-1-phenylpyrrolidin-3-yl)-2-phenylpropanal]",IC50,AChE electric eel,423 µM
same,inhibition at 15.62 µg/mL,AChE electric eel,21.3 ± 0.87%
same,inhibition at 31.25 µg/mL,AChE electric eel,27.2 ± 0.47%
same,inhibition at 62.5 µg/mL,AChE electric eel,39.1 ± 0.54%
same,inhibition at 125 µg/mL,AChE electric eel,48 ± 0.3%
same,inhibition at 250 µg/mL,AChE electric eel,59.9 ± 0.6%
same,inhibition at 500 µg/mL,AChE electric eel,70.5 ± 0.9%
same,inhibition at 1000 µg/mL,AChE electric eel,77.23 ± 0.22%
same,IC50,[1],358 µM
same,inhibition at 15.62 µg/mL,[1],23.4 ± 0.82%
same,inhibition at 31.25 µg/mL,[1],31.2 ± 0.47%
same,inhibition at 62.5 µg/mL,[1],42 ± 0.97%
same,inhibition at 125 µg/mL,[1],51.9 ± 0.45%
same,inhibition at 250 µg/mL,[1],62.12 ± 0.54%
same,inhibition at 500 µg/mL,[1],72.54 ± 0.6%
same,inhibition at 1000 µg/mL,[1],79 ± 1.03%
same,(%) Inhibition DPPH,[2]; 15.62 μg/mL,13.70±1.60 %
same,(%) Inhibition DPPH,[2]; 31.25 μg/mL,23.55 ± 1.85 %
same,(%) Inhibition DPPH,[2]; 62.5 μg/mL,36.36 ± 0.91 %
same,(%) Inhibition DPPH,[2]; 125 μg/mL,50.07 ± 0.97 %
same,(%) Inhibition DPPH,[2]; 250 μg/mL,61.31 ± 1.97 %
same,(%) Inhibition DPPH,[2]; 500 μg/mL,70.34 ±1.10 %
same,(%) Inhibition DPPH,[2]; 1000 μg/mL,77.04 ± 1.61 %
same,IC50,[2],407 µM
same,(%) Inhibition ABTS,[3]; 15.62 μg/mL,12.33±1.67 %
same,(%) Inhibition ABTS,[3]; 31.25 μg/mL,22.83±1.21 %
same,(%) Inhibition ABTS,[3]; 62.5 μg/mL,38.10±0.90 %
same,(%) Inhibition ABTS,[3]; 125 μg/mL,49.31±0.58 %
same,(%) Inhibition ABTS,[3]; 250 μg/mL,59.87±0.85 %
same,(%) Inhibition ABTS,[3]; 500 μg/mL,68.51±0.54 %
same,(%) Inhibition ABTS,[3]; 1000 μg/mL,75.76±0.61 %
same,IC50,[3],498 µM
same,IC50,[5],472 µM
same,inhibition at 15.62 µg/mL,[5],28.8 ± 1.5%
same,inhibition at 31.25 µg/mL,[5],34 ± 0.35%
same,inhibition at 62.5 µg/mL,[5],41.9 ± 0.96%
same,inhibition at 125 µg/mL,[5],47.8 ± 1.5%
same,inhibition at 250 µg/mL,[5],55.8 ± 0.71%
same,inhibition at 500 µg/mL,[5],65.08 ± 0.47%
same,inhibition at 1000 µg/mL,[5],71.8 ± 1.24%
same,"Vmax, acetylcholinesterase inhibition",acetylcholinesterase,78.65 µg/min
same,"Vmax, butyrylcholinesterase inhibition",butyrylcholinesterase,2.867 µg/min
same,"Vmax, α-glucosidase",α-glucosidase,3.542 µg/min
"COc1ccc2c3c1O[C@H]1C[C@@H](O)C=C[C@@]31CCN(C)C2 [Galanthamine (Std.), galanthamine hydrobromide, reference compound]",inhibition at 15.62 µg/mL,[1],49.7 ± 0.68%
same,inhibition at 31.25 µg/mL,[1],59.33 ± 0.49%
same,inhibition at 62.5 µg/mL,[1],69.03 ± 0.23%
same,inhibition at 125 µg/mL,[1],73.23 ± 0.4%
same,inhibition at 250 µg/mL,[1],80.74 ± 0.68%
same,inhibition at 500 µg/mL,[1],86.9 ± 0.48%
same,inhibition at 1000 µg/mL,[1],93.9 ± 0.96%
same,"Vmax, butyrylcholinesterase inhibition",butyrylcholinesterase; listed as galantamine,2.566 µg/min and 2.641 µg/min
